Source: patent US12509452B2, “Substituted-isoxazoline-containing aromatic compound, preparation method therefor, herbicidal composition and use thereof” (QINGDAO KINGAGROOT CHEMICAL COMPOUND CO., LTD., priority 2019, dated 2025)

Experiments:
Assay in all cases: weeding effect in post-emergence stage
Type in all cases: in vivo
Conyza japonica = system: Conyza japonica
How it was run: (§1)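 Post-emergence spray-tower application at 500, 250, 125, 60, 15 or 7.5 g a.i./ha, formulated in acetone with Tween 80 and 1.5 L/ha methyl oleate synergist, to pot-grown plants at the 2-3 leaf stage. After 3 weeks in the greenhouse, fresh-weight control rate graded levels 0-5; three replicates averaged.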

Alopecurus japonicus = system: Alopecurus japonicus
How it was run: as §1

Beckmannia syzigachne = system: Beckmannia syzigachne
How it was run: as §1

Rorippa indica = system: Rorippa indica
How it was run: as §1

Structure (SMILES)	weeding effect in post-emergence stage, Conyza japonica (activity level) (Conyza japonica; dose 125 g a.i./ha)	weeding effect in post-emergence stage, Alopecurus japonicus (activity level) (Alopecurus japonicus; dose 125 g a.i./ha)	weeding effect in post-emergence stage, Beckmannia syzigachne (activity level) (Beckmannia syzigachne; dose 125 g a.i./ha)	weeding effect in post-emergence stage, Rorippa indica (activity level) (Rorippa indica; dose 125 g a.i./ha)	weeding effect in post-emergence stage, Conyza japonica (activity level) (Conyza japonica; dose 15 g a.i./ha)	weeding effect in post-emergence stage, Alopecurus japonicus (activity level) (Alopecurus japonicus; dose 15 g a.i./ha)	weeding effect in post-emergence stage, Beckmannia syzigachne (activity level) (Beckmannia syzigachne; dose 15 g a.i./ha)	weeding effect in post-emergence stage, Rorippa indica (activity level) (Rorippa indica; dose 15 g a.i./ha)	weeding effect in post-emergence stage, Conyza japonica (activity level) (Conyza japonica; dose 7.5 g a.i./ha)	weeding effect in post-emergence stage, Alopecurus japonicus (activity level) (Alopecurus japonicus; dose 7.5 g a.i./ha)	weeding effect in post-emergence stage, Beckmannia syzigachne (activity level) (Beckmannia syzigachne; dose 7.5 g a.i./ha)	weeding effect in post-emergence stage, Rorippa indica (activity level) (Rorippa indica; dose 7.5 g a.i./ha)
CCOC(=O)[C@@]1(CCF)CC(c2cc(-n3c(=O)n(C)c(=S)n(C)c3=O)c(F)cc2Cl)=NO1 [34(S)]	5 (Level 5: growth control rate is above 85%)	5 (Level 5: growth control rate is above 85%)	5 (Level 5: growth control rate is above 85%)	5 (Level 5: growth control rate is above 85%)								
CCOC(=O)COC[C@]1(C(=O)OCC)CC(c2cc(-n3c(=O)n(C)c(=S)n(C)c3=O)c(F)cc2Cl)=NO1 [54(S)]					5 (Level 5: growth control rate is above 85%)	5 (Level 5: growth control rate is above 85%)	5 (Level 5: growth control rate is above 85%)	5 (Level 5: growth control rate is above 85%)				
COC(=O)[C@@]1(c2ccccc2)CC(c2cc(-n3c(=O)n(C)c(=S)n(C)c3=O)c(F)cc2Cl)=NO1 [56(S)]					5 (Level 5: growth control rate is above 85%)	5 (Level 5: growth control rate is above 85%)	5 (Level 5: growth control rate is above 85%)	5 (Level 5: growth control rate is above 85%)				
COC(=O)[C@]1(Cc2ccccc2)CC(c2cc(-n3c(=O)n(C)c(=S)n(C)c3=O)c(F)cc2Cl)=NO1 [59(S)]					5 (Level 5: growth control rate is above 85%)	5 (Level 5: growth control rate is above 85%)	5 (Level 5: growth control rate is above 85%)	5 (Level 5: growth control rate is above 85%)				
CCOC(=O)[C@]1(CC)CC(c2cc(-n3c(=O)cc(C(F)(F)F)n(C)c3=O)c(F)cc2Cl)=NO1 [105(S)]	5 (Level 5: growth control rate is above 85%)	5 (Level 5: growth control rate is above 85%)	5 (Level 5: growth control rate is above 85%)	5 (Level 5: growth control rate is above 85%)								
CCOC(=O)[C@@]1(C2CC2)CC(c2cc(-n3c(=O)cc(C(F)(F)F)n(C)c3=O)c(F)cc2Cl)=NO1 [119(S)]	5 (Level 5: growth control rate is above 85%)	5 (Level 5: growth control rate is above 85%)	5 (Level 5: growth control rate is above 85%)	5 (Level 5: growth control rate is above 85%)					4 (Level 4: growth control rate is greater than or equal to 60% and less than 85%)	5 (Level 5: growth control rate is above 85%)	5 (Level 5: growth control rate is above 85%)	4 (Level 4: growth control rate is greater than or equal to 60% and less than 85%)
CCOC(=O)[C@@]1(C2CCC2)CC(c2cc(-n3c(=O)cc(C(F)(F)F)n(C)c3=O)c(F)cc2Cl)=NO1 [126(S)]					5 (Level 5: growth control rate is above 85%)	5 (Level 5: growth control rate is above 85%)	5 (Level 5: growth control rate is above 85%)	5 (Level 5: growth control rate is above 85%)				
COC(=O)[C@@]1(F)CC(c2cc(-n3c(=O)cc(C(F)(F)F)n(C)c3=O)c(F)cc2Cl)=NO1 [129(S)]					5 (Level 5: growth control rate is above 85%)	5 (Level 5: growth control rate is above 85%)	5 (Level 5: growth control rate is above 85%)	5 (Level 5: growth control rate is above 85%)				
CCOC(=O)[C@]1(CF)CC(c2cc(-n3c(=O)cc(C(F)(F)F)n(C)c3=O)c(F)cc2Cl)=NO1 [132(S)]					5 (Level 5: growth control rate is above 85%)	5 (Level 5: growth control rate is above 85%)	5 (Level 5: growth control rate is above 85%)	5 (Level 5: growth control rate is above 85%)				
CCOC(=O)[C@]1(C(F)F)CC(c2cc(-n3c(=O)cc(C(F)(F)F)n(C)c3=O)c(F)cc2Cl)=NO1 [134(S)]					5 (Level 5: growth control rate is above 85%)	5 (Level 5: growth control rate is above 85%)	5 (Level 5: growth control rate is above 85%)	5 (Level 5: growth control rate is above 85%)				
CCOC(=O)[C@]1(C(F)(F)F)CC(c2cc(-n3c(=O)cc(C(F)(F)F)n(C)c3=O)c(F)cc2Cl)=NO1 [135(S)]					5 (Level 5: growth control rate is above 85%)	5 (Level 5: growth control rate is above 85%)	5 (Level 5: growth control rate is above 85%)	5 (Level 5: growth control rate is above 85%)				
CCOC(=O)[C@@]1(CCF)CC(c2cc(-n3c(=O)cc(C(F)(F)F)n(C)c3=O)c(F)cc2Cl)=NO1 [136(S)]					5 (Level 5: growth control rate is above 85%)	5 (Level 5: growth control rate is above 85%)	5 (Level 5: growth control rate is above 85%)	5 (Level 5: growth control rate is above 85%)				
CCOC(=O)[C@@]1(CO)CC(c2cc(-n3c(=O)cc(C(F)(F)F)n(C)c3=O)c(F)cc2Cl)=NO1 [142(S)]					5 (Level 5: growth control rate is above 85%)	5 (Level 5: growth control rate is above 85%)	5 (Level 5: growth control rate is above 85%)	5 (Level 5: growth control rate is above 85%)				
CCOC(=O)[C@@]1(C=O)CC(c2cc(-n3c(=O)cc(C(F)(F)F)n(C)c3=O)c(F)cc2Cl)=NO1 [152(S)]					5 (Level 5: growth control rate is above 85%)	5 (Level 5: growth control rate is above 85%)	5 (Level 5: growth control rate is above 85%)	5 (Level 5: growth control rate is above 85%)				
CCOC(=O)[C@@]1(C(C)C)CC(c2cc(-n3c(=O)n(C)c(=S)n(C)c3=S)c(F)cc2Cl)=NO1 [204(S)]					5 (Level 5: growth control rate is above 85%)	5 (Level 5: growth control rate is above 85%)	5 (Level 5: growth control rate is above 85%)	5 (Level 5: growth control rate is above 85%)				
CCCC[C@@]1(C(=O)OCC)CC(c2cc(-n3c(=O)n(C)c(=S)n(C)c3=S)c(F)cc2Cl)=NO1 [205(S)]					5 (Level 5: growth control rate is above 85%)	5 (Level 5: growth control rate is above 85%)	5 (Level 5: growth control rate is above 85%)	5 (Level 5: growth control rate is above 85%)				
CCOC(=O)[C@]1(C(F)(F)F)CC(c2cc(-n3c(=O)n(C)c(=S)n(C)c3=S)c(F)cc2Cl)=NO1 [206(S)]					5 (Level 5: growth control rate is above 85%)	5 (Level 5: growth control rate is above 85%)	5 (Level 5: growth control rate is above 85%)	5 (Level 5: growth control rate is above 85%)				
